Conditions: 20 mmol/liter acetic acid-sodium acetate buffer pH 3.6, 40° C., 25 hr
Description: The titanium oxide complex particles and the dihydroxyphenylpropionic acid obtained in Example 1 were mixed together in 1) a 20 mmol/liter acetic acid-sodium acetate buffer solution (pH=3.6), 2) a 20 mmol/liter MES buffer solution (manufactured by Dojindo; pH=6.0), and 3) a 20 mmol/liter HEPES buffer solution (manufactured by Dojindo; pH=8.1) so that the final concentration of the titanium oxide complex particles and the final concentration of the dihydroxyphenylpropionic acid in the resultant mixed solutions were 2% and 50 mmol/liter, respectively. The total volume of each of the mixed solution was adjusted to 0.8 ml.
The adjusted solutions were stirred at 40° C. for 25 hr. For each solution, an absorption spectrum was measured in an ultraviolet-visible range (200 to 600 nm) with an ultraviolet-visible spectrometer.

## O=C(O)CCc1ccc(O)c(O)c1 [dihydroxyphenylpropionic acid]
  Change in absorption spectrum versus zero hr: little or no change was observed in the absorption spectrum

Source: patent publication US20110137235A1, “ULTRASONIC CANCER THERAPY ACCELERATOR” (TOTO Ltd., priority 2008, published 2011)
